The record followed here is the NIST ThermoML archive (doi:10.1016/j.jct.2013.02.004).

The series is described as follows: activity coefficient (dimensionless); of the first substance listed, at infinite dilution; xn = mol fraction of the nth substance listed. Conditions: 101 kPa, Liquid, Chromatography, x1 = 0.

Numbers after ± are expanded uncertainties.

For the compound `CCC(=O)CC` [pentan-3-one] + CCCCCC[n+]1ccc2ccccc2c1.N#C[S-], the activity coefficient stood at 2.1 ± 0.14 (328.15 K); 2.11 ± 0.14 (338.15 K); 2.13 ± 0.14 (348.15 K); 2.15 ± 0.15 (358.15 K); 2.15 ± 0.15 (368.15 K).
`CCCO` [propan-1-ol] + CCCCCC[n+]1ccc2ccccc2c1.N#C[S-]: the activity coefficient (328.15 K) came out at 0.693 ± 0.047; the activity coefficient (338.15 K) was found to be 0.681 ± 0.046; the activity coefficient (348.15 K) worked out at 0.671 ± 0.045; the activity coefficient (358.15 K) came out at 0.664 ± 0.045; the activity coefficient (368.15 K) turned out to be 0.653 ± 0.045.
As to `C=CCCC` [1-pentene] + CCCCCC[n+]1ccc2ccccc2c1.N#C[S-], the activity coefficient was 18.4 ± 1.3 (308.15 K); 16.2 ± 1.1 (318.15 K); 14.5 ± 1 (328.15 K); 12.9 ± 0.9 (338.15 K); 11.7 ± 0.8 (348.15 K); 10.7 ± 0.7 (358.15 K). For the same compound, where the note is “368.15 K”, the activity coefficient is 9.6 ± 0.7.
Regarding `C1=CCCCC1` [cyclohexene] + CCCCCC[n+]1ccc2ccccc2c1.N#C[S-], the activity coefficient was found to be 7.2 ± 0.49 (308.15 K); 6.9 ± 0.47 (318.15 K); 6.6 ± 0.45 (328.15 K); 6.2 ± 0.42 (338.15 K); 5.9 ± 0.4 (348.15 K); 5.7 ± 0.39 (358.15 K). In addition, the activity coefficient (368.15 K) was determined as 5.5 ± 0.37.
